Source: patent US20230111310A1, “CARBOXYLIC ACID DERIVATIVE-SUBSTITUTED IMINO ARYL COMPOUND, PREPARATION METHOD THEREFOR, HERBICIDAL COMPOSITION AND USE THEREOF” (Qingdao Kingagroot Chemical Compound Co., Ltd., priority 2020, published 2023)

Tests used:
Assay in all cases: Weeding effect in post-emergence stage
Assay type in all cases: in vivo
Conditions in all cases: fresh weight control rate level
Abutilon theophrasti = tested on: Abutilon theophrasti
Method in brief: (§1)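 Weeds were treated post-emergence at 2-3 leaves with compound doses from 7.5 up to 500 g/ha, formulated in acetone–Tween 80 with methyl oleate synergist. Efficacy was assessed as growth control after 3 weeks.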

Alopecurus japonicus = tested on: Alopecurus japonicus
Method in brief: as §1

Digitaria sanguinalis = tested on: Digitaria sanguinalis
Method in brief: as §1

Eleusine indica = tested on: Eleusine indica
Method in brief: as §1

Setaria viridis = tested on: Setaria viridis
Method in brief: as §1

Echinochloa crusgalli = tested on: Echinochloa crusgalli
Method in brief: as §1

Structure (SMILES)	Weeding effect in post-emergence stage, Abutilon theophrasti (level) (Abutilon theophrasti; Dose 15 g/ha)	Weeding effect in post-emergence stage, Alopecurus japonicus (level) (Alopecurus japonicus; Dose 15 g/ha)	Weeding effect in post-emergence stage, Digitaria sanguinalis (level) (Digitaria sanguinalis; Dose 15 g/ha)	Weeding effect in post-emergence stage, Eleusine indica (level) (Eleusine indica; Dose 15 g/ha)	Weeding effect in post-emergence stage, Setaria viridis (level) (Setaria viridis; Dose 15 g/ha)	Weeding effect in post-emergence stage, Echinochloa crusgalli (level) (Echinochloa crusgalli; Dose 15 g/ha)	Weeding effect in post-emergence stage, Abutilon theophrasti (level) (Abutilon theophrasti; Dose 30 g/ha)	Weeding effect in post-emergence stage, Alopecurus japonicus (level) (Alopecurus japonicus; Dose 30 g/ha)	Weeding effect in post-emergence stage, Digitaria sanguinalis (level) (Digitaria sanguinalis; Dose 30 g/ha)	Weeding effect in post-emergence stage, Eleusine indica (level) (Eleusine indica; Dose 30 g/ha)	Weeding effect in post-emergence stage, Setaria viridis (level) (Setaria viridis; Dose 30 g/ha)	Weeding effect in post-emergence stage, Echinochloa crusgalli (level) (Echinochloa crusgalli; Dose 30 g/ha)
CCSC(=O)C(C)O/N=C/c1cc(-n2c(=O)cc(C(F)(F)F)n(C)c2=O)c(F)cc1Cl (stereo not drawn) [Compound 398]	5 (Level 5: growth control rate is above 85%)	5 (Level 5: growth control rate is above 85%)	5 (Level 5: growth control rate is above 85%)	5 (Level 5: growth control rate is above 85%)	5 (Level 5: growth control rate is above 85%)	5 (Level 5: growth control rate is above 85%)	–	–	–	–	–	–
CCCSC(=O)C(C)O/N=C/c1cc(-n2c(=O)cc(C(F)(F)F)n(C)c2=O)c(F)cc1Cl (stereo not drawn) [Compound 399]	5 (Level 5: growth control rate is above 85%)	5 (Level 5: growth control rate is above 85%)	5 (Level 5: growth control rate is above 85%)	5 (Level 5: growth control rate is above 85%)	5 (Level 5: growth control rate is above 85%)	5 (Level 5: growth control rate is above 85%)	–	–	–	–	–	–
CC(C)SC(=O)C(C)O/N=C/c1cc(-n2c(=O)cc(C(F)(F)F)n(C)c2=O)c(F)cc1Cl (stereo not drawn) [Compound 400]	5 (Level 5: growth control rate is above 85%)	4 (Level 4: growth control rate is greater than or equal to 60% and less than 85%)	5 (Level 5: growth control rate is above 85%)	5 (Level 5: growth control rate is above 85%)	5 (Level 5: growth control rate is above 85%)	5 (Level 5: growth control rate is above 85%)	–	–	–	–	–	–
COC(=O)CSC(=O)C(C)O/N=C/c1cc(-n2c(=O)cc(C(F)(F)F)n(C)c2=O)c(F)cc1Cl (stereo not drawn) [Compound 406]	5 (Level 5: growth control rate is above 85%)	4 (Level 4: growth control rate is greater than or equal to 60% and less than 85%)	5 (Level 5: growth control rate is above 85%)	5 (Level 5: growth control rate is above 85%)	5 (Level 5: growth control rate is above 85%)	5 (Level 5: growth control rate is above 85%)	–	–	–	–	–	–
CC(O/N=C/c1cc(-n2c(=O)cc(C(F)(F)F)n(C)c2=O)c(F)cc1Cl)C(=O)SCc1ccccc1 (stereo not drawn) [Compound 409]	–	–	–	–	–	–	5 (Level 5: growth control rate is above 85%)	5 (Level 5: growth control rate is above 85%)	5 (Level 5: growth control rate is above 85%)	5 (Level 5: growth control rate is above 85%)	5 (Level 5: growth control rate is above 85%)	5 (Level 5: growth control rate is above 85%)
COC(=O)CCNC(=O)C(C)O/N=C/c1cc(-n2c(=O)cc(C(F)(F)F)n(C)c2=O)c(F)cc1Cl (stereo not drawn) [Compound 416]	5 (Level 5: growth control rate is above 85%)	4 (Level 4: growth control rate is greater than or equal to 60% and less than 85%)	5 (Level 5: growth control rate is above 85%)	5 (Level 5: growth control rate is above 85%)	5 (Level 5: growth control rate is above 85%)	5 (Level 5: growth control rate is above 85%)	–	–	–	–	–	–
CON(C)C(=O)C(C)O/N=C/c1cc(-n2c(=O)cc(C(F)(F)F)n(C)c2=O)c(F)cc1Cl (stereo not drawn) [Compound 419]	5 (Level 5: growth control rate is above 85%)	5 (Level 5: growth control rate is above 85%)	5 (Level 5: growth control rate is above 85%)	5 (Level 5: growth control rate is above 85%)	5 (Level 5: growth control rate is above 85%)	5 (Level 5: growth control rate is above 85%)	–	–	–	–	–	–
CC(O/N=C/c1cc(-n2c(=O)cc(C(F)(F)F)n(C)c2=O)c(F)cc1Cl)C(=O)NS(=O)(=O)N(C)C(C)C (stereo not drawn) [Compound 421]	5 (Level 5: growth control rate is above 85%)	5 (Level 5: growth control rate is above 85%)	5 (Level 5: growth control rate is above 85%)	5 (Level 5: growth control rate is above 85%)	5 (Level 5: growth control rate is above 85%)	5 (Level 5: growth control rate is above 85%)	–	–	–	–	–	–
